Results on two molecules are retold here after patent publication US20240374613A1, “BIOACTIVE MOLECULES FOR USE IN TREATING INSULIN RESISTANCE AND/OR RESTORING GLUCOSE HOMEOSTASIS” (PALTECH, priority 2021, published 2024).

The test system of assay [1] is GLP-1r. As to conditions: DHT infusion 10 mg daily, one month after surgery. Here is the method: (§1) The method was evaluated on 15 miniature pigs aged 5 years old (INRAE, UEPR, Saint-Gilles, France) and rendered insulin resistant after 3-4 months high fat high sucrose dict ingestion in excess according to already published data (Malbert et al., 2017b). The diet supplied 4024 kcal per kg of feed and was presented twice daily so that the animals could eat up to 150% of the recommended caloric intake (288 kcal/kg BW^0.75).
Once obese and insulin resistant, the animals were distributed into three groups of equal size (n=5 animals). One group served as control and was submitted only to a dummy implantation procedure including the initial GLP-1r PET imaging sequence using [68Ga]Ga-DO3A-VS-Cys40-Exendin-4. The second group was implanted during a laparoscopic procedure with a silicon catheter (2 mm OD) with its tip located at the portal sensor close to the minimum GLP-1r expression area according to the procedure described in 3.3. The terminal part of the catheter was bend at 90° to enter the periportal area. The catheter was secured at the entrance of the periportal cavity using a dacron surgical mesh (Biomesh P1, Cousin Bioserv Paris) glued to the silicon rubber prior to the implantation. During the implantation, the surgical mesh was glued to the outer layer of the portal vein using a surgical glue dispenser Glubran 2 and Glutack Cousin Bioserv Paris). […]

How the values of assay [2] were obtained:
as §1
(§2) Once obese and insulin resistant, the animals were distributed into three groups of equal size (n=5 animals). One group served as control and was submitted only to a dummy implantation procedure including the initial GLP-1r PET imaging sequence using [68Ga]Ga-DO3A-VS-Cys40-Exendin-4. The second group was implanted during a laparoscopic procedure with a silicon catheter (2 mm OD) with its tip located at the portal sensor close to the minimum GLP-1r expression area according to the procedure described in 3.3. The terminal part of the catheter was bend at 90° to enter the periportal area. The catheter was secured at the entrance of the periportal cavity using a dacron surgical mesh (Biomesh P1, Cousin Bioserv Paris) glued to the silicon rubber prior to the implantation. During the implantation, the surgical mesh was glued to the outer layer of the portal vein using a surgical glue dispenser Glubran 2 and Glutack Cousin Bioserv Paris). The opposite tip of the catheter exited between the shoulder of the animal and was connected to an elastomeric pump. The pump (Easypump, II, BBraun) delivered 2 mL per hour of a solution of dihydrotestosterone (Sigma, Paris) in sterile water/DMSO (100:5 V/V) so that 10 mg of dihydrotestosterone was infused daily. The amount of the active molecule was irrespective of the body weight (BW). The pump was located in a lateral pocket of a jacket Whose size was adjusted for obese Yucantan minipigs (Lomir, Canada) and wore by the animal for the duration of the experiment. The third group was implanted during a laparoscopic procedure with an implant delivering 100 μg of dihydrostestoterone daily (Belma Technologies, Belgium) irrespective of the weight of the animal. The implant was inserted in the periportal area and the insertion hole achieved on the mesenteric layer for insertion was closed by a patch of surgical mesh glued directly on the meso using a procedure similar that described above. The anesthesia and surgical approach used for laparoscopy were identical those already described by Malbert et al. (Malbert et al., 2017b).
The protocol was described in FIG. 5 and consisted of two periods; one during which an obese insulin resistant status is achieved followed by a one-month post-surgery period during which DHT was slowly release according to the method of delivery described above. For control and implant groups only, the experimental period was also extended for an additional month to evaluate the capacity of the method to achieve a sustained effect on glucose metabolism. This extended period was not achievable on catheter implanted animals due to ethical constraints. A one-week recovery period is inserted in the protocol after the initial PET GLP-1r scan and after the surgery. The data acquired during these periods were discarded from further analysis.
Distribution of GLP-1r along the portal vein and within the abdominal organs was obtained during an initial PET scan after the administration of 25 to 40 MBq [68Ga]Ga-DO3A-VS-Cys40-Exendin-4 according to the above section 3 of the examples. The portal area of low GLP-1r expression was identified and used for insertion of either the catheter tip or the DHT implant according to the above section 3.3 relating to laparoscopic access. The anesthesia and overall procedure for imaging is identical that described by Malbert et al (Malbert et al., 2020b). The same PET scan procedure was repeated one month after the surgical procedure allowing to compare between groups and within subjects of the same group the changes in GLP-1r distribution.

The conditions of assay [3]: DHT infusion 10 mg/24 H, mean ± SD, N=5. On the procedure:
as §1, §2
The protocol was described in FIG. 5 and consisted of two periods; one during which an obese insulin resistant status is achieved followed by a one-month post-surgery period during which DHT was slowly release according to the method of delivery described above. […]

In assay [4] the test system is muscle protein synthesis. To be noted: effect in muscle protein synthesis; in the form of gel applied cutaneous; cited from earlier work.
[5] abbreviates: DHT infusion 10 mg/24 H, periportal catheter, first 30 days after surgery, mean ± SD, N=5.
The mark [6] stands for this setting: DHT infusion 10 mg/24 H, 30 days after the implantation surgery, mean ± SD, N=5.
Setting [7] is: periportal catheter, first 30 days after surgery.
Setting [8] is: 30 days after the implantation surgery.

Regarding `C[C@]12CCC(=O)C[C@@H]1CC[C@@H]1[C@@H]2CC[C@]2(C)[C@@H](O)CC[C@@H]12` [DHT infusion, dihydrotestosterone], in assay [1], the “Portal GLP-1r binding potential/volume of distribution compared to control” value was “more than doubled”. The “Non portal (pancreatic) GLP-1r binding” value in assay [1] (ns vs control) turned out to be 4.8±0.41. Also, in assay [2] (setting [5]), the Abdominal fat is given as 38.1 ± 0.7!^ % of BW, the Fat is on record as 36.8 ± 0.5 % of BW, the “Liver to spleen ratio” value worked out at 1.1 ± 0.02 and the Mean arterial pressure turned out to be 79 ± 3.1 mmHg. In assay [2] (setting [5]), the Muscle was 6.5 ± 1.0 % of BW, the Pulse rate stood at 104 ± 8.7 min⁻¹ and the Systolic blood pressure was 55 ± 2.1 mmHg. Also, in assay [2] (setting [6]), the Clamp plasma insulin was 501 ± 14.1 μU/mL, the Fasting plasma glucose stood at 4.2 ± 0.23 mmol/L, the Fasting plasma insulin came to 2.1 ± 0.21 μU/mL and the “Mean plasma glucose at clamp plateau” value was 4.2 ± 0.36 mmol/L. The Insulin sensitivity in assay [2] (DHT infusion 10 mg/24 H, euglycemic hyperinsulinemic clamp plateau, 30 days after the implantation surgery, mean ± SD, N=5) amounted to 6.8 ± 0.20 dL/kg · min/μMU/mL*1E−3. In assay [3] (setting [7]), this molecule yielded a Body weight of 80.8 ± 2.0 kg and a Daily ingestion of 8.6 ± 0.03 g/kg · day. Further, in assay [3] (setting [8]), the Basal metabolic rate worked out at 0.0079 ± 0.0007 kcal/min/kg and the “Fasting glucose oxidation rate” value came to 1.8 ± 0.10 mg/min · kg.

For `C[C@]12CCC(=O)C[C@@H]1CC[C@@H]1[C@@H]2CC[C@]2(C)[C@@H](O)CC[C@@H]12` [DHT, dihydrotestosterone], the “Circulating insulin as fraction of the insulinemia measured in control group” value in assay [2] (DHT treated animals (both groups), fasting, 30 days after surgery) is recorded as 1/3. Also, the “Whole-body insulin sensitivity change compared to control” value in assay [2] (euglycemic hyperinsulinemic clamp, irrespective of the DHT group) is “one third increase”. Also, the ED50 in assay [4] is 20 mg daily.
